Experimental findings from ChEMBL document CHEMBL1201862, “PubChem BioAssay data set” (2004) are described below.

The structures appear in SMILES notation.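 Five concentrations, 48 hours, 96-well plates. The concentration for 50% growth inhibition is given as GI50.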 The source made the active and inactive calls. Rule as the data show it: active = GI50 up to about 1.1 µM and inactive = higher.

Test systems include A549; DMS-273; SNB-78; ACHN; XF498; SR; A498; SF-268; LXFL 529; T47D; PC-3; DU-145; MDA-MB-231; MDA-MB-435; Hs-578T; K562; UO-31; HOP-62; NCI/ADR-RES; MCF7.
Common to all, as to test: inhibition of tumour cell growth, NCI panel, 48 h

Take `CN1NC(c2ccccc2)=C(C#N)C(=O)CC1c1ccc(F)cc1` (stereo unspecified): the GI50 in the assay on A549, in the assay on DMS-273, with SNB-78, in the assay on ACHN, in the assay with XF498 and in the assay on SR was > 100 µM (inactive) in each case. The GI50 with A498, in the assay on SF-268 and in the assay with LXFL 529 was > 100 µM (inactive) throughout.

`N#CCCC1C(C#N)C2(Cl)CC1(Cl)C(Cl)=C2Cl` (stereo unspecified): the GI50 in the assay on T47D, with A549, with PC-3, with DU-145, with ACHN and in the assay with MDA-MB-231 was > 10 µM (inactive) in each case. The GI50 in the assay with MDA-MB-435, in the assay on Hs-578T, in the assay on K562, with UO-31, with HOP-62 and in the assay with A498 was > 10 µM (inactive) throughout. For the same compound, the GI50 in the assay with SF-268, in the assay on NCI/ADR-RES and in the assay on MCF7 was > 10 µM (inactive) each time.

For `COC(C/C=C\C=C\CC/C=C/CC(C)/C=C/C(=C\C(=O)O)CC(=O)O)/C(C)=C\C=C(/C)C(=O)O` (stereo unspecified), the GI50 in the assay with A549, in the assay on PC-3, in the assay on DU-145, in the assay on SR, in the assay on MDA-MB-231 and in the assay with MDA-MB-435 was > 100 µM (inactive) each time. For the same compound, the GI50 in the assay on Hs-578T was 61.7 µM (inactive); in the assay on UO-31, > 100 µM (inactive); with HOP-62, > 100 µM (inactive); in the assay with A498 it was > 100 µM (inactive); with SF-268, > 100 µM (inactive).

Consider `Cc1ccc(/N=N/NCCCCN/N=N/c2ccc(C)cc2)cc1`, for which the GI50 was 11.5 µM (inactive) with T47D; 6.04 µM (inactive) with A549; 4.22 µM (inactive) in the assay on PC-3; 32 µM (inactive) in the assay with DU-145; 17.5 µM (inactive) with SR; > 100 µM (inactive) with MDA-MB-231. Besides, the GI50 with MDA-MB-435 was 11.8 µM (inactive); in the assay with Hs-578T, > 100 µM (inactive); with K562, > 100 µM (inactive); in the assay with UO-31, 0.196 µM (active); in the assay on HOP-62, 47.9 µM (inactive); in the assay with A498 it was 54.6 µM (inactive). For the same compound, the results for the GI50 in the assay on SF-268, in the assay with NCI/ADR-RES and in the assay with MCF7 were 96.8 µM (inactive), > 100 µM (inactive) and 78.3 µM (inactive), respectively.

For `Cc1cn(C2CC(O)C(Cn3nncc3Cn3ncc(=O)[nH]c3=O)O2)c(=O)[nH]c1=O` (stereo unspecified), the GI50 in the assay on T47D, with A549, in the assay on PC-3, in the assay on DU-145, with ACHN and in the assay on MDA-MB-231 was > 100 µM (inactive) each time. Moreover, the GI50 in the assay on MDA-MB-435, in the assay on Hs-578T, with UO-31, in the assay with HOP-62, in the assay with A498 and with SF-268 was > 100 µM (inactive) in each case. Further, the GI50 in the assay with NCI/ADR-RES and in the assay with MCF7 was > 100 µM (inactive) each time.

`CC[N+]1(C)CCC(O)(c2ccc(Cl)cc2)C(C(=O)c2ccc(Cl)cc2)C1` (stereo unspecified): the GI50 was 2.79 µM (inactive) in the assay with T47D; 17.5 µM (inactive) with PC-3; 18.7 µM (inactive) in the assay with DU-145; 19 µM (inactive) with ACHN; 6.34 µM (inactive) in the assay with SR; 14.9 µM (inactive) with MDA-MB-231. Moreover, the GI50 with MDA-MB-435 was 19.8 µM (inactive); in the assay with Hs-578T, 12.5 µM (inactive); with K562, 4.09 µM (inactive); in the assay on UO-31, 20.1 µM (inactive); with HOP-62 it was 23.8 µM (inactive); in the assay on A498, 27.9 µM (inactive). Also, the GI50 with SF-268 was 24.5 µM (inactive); in the assay on NCI/ADR-RES, 24.2 µM (inactive); in the assay with MCF7 it was 1.1 µM (active).

With `CCCCOC(=O)CN1C(=O)c2ccccc2C1=O`, the GI50 with A549, with DMS-273, with SNB-78, in the assay with ACHN, in the assay on XF498 and with SR was > 100 µM (inactive) throughout. The GI50 in the assay on UO-31, in the assay with HOP-62 and with SF-268 was > 100 µM (inactive) each time.

Consider `CCC1=NC(C(F)(F)F)(C(F)(F)F)N=C(N2CCOCC2)O1`, for which the GI50 in the assay on T47D, with A549, in the assay with PC-3, in the assay with DU-145, in the assay with ACHN and in the assay with SR was > 100 µM (inactive) throughout. Besides, the GI50 with MDA-MB-231, in the assay with MDA-MB-435, with Hs-578T, with K562, in the assay with UO-31 and in the assay on SF-268 was > 100 µM (inactive) throughout. In addition, the GI50 in the assay on NCI/ADR-RES and in the assay with MCF7 was > 100 µM (inactive) in each case.

`CC1(C)CCc2cc3c(-c4ccccc4)cc(=O)oc3cc2O1`: the GI50 in the assay on DMS-273 was > 100 µM (inactive); in the assay with SNB-78 it was 85.7 µM (inactive); in the assay with ACHN, > 100 µM (inactive); in the assay with XF498, 41 µM (inactive); in the assay on K562, > 100 µM (inactive); in the assay with UO-31, > 100 µM (inactive). In addition, the GI50 with A498, with SF-268 and in the assay on LXFL 529 was > 100 µM (inactive) in each case.

`COC(c1ccc(C(C)(C)C)cc1)(c1ccc(C(C)(C)C)cc1)c1cc(C(O)(c2cc(C(OC)(c3ccc(C(C)(C)C)cc3)c3ccc(C(C)(C)C)cc3)c(C)cc2C)c2cc(C(OC)(c3ccc(C(C)(C)C)cc3)c3ccc(C(C)(C)C)cc3)c(C)cc2C)c(C)cc1C`: the GI50 in the assay with T47D, in the assay with A549, in the assay with PC-3, with DU-145, in the assay with SR and in the assay with MDA-MB-231 was > 100 µM (inactive) each time. Moreover, the GI50 in the assay on MDA-MB-435, in the assay with Hs-578T, in the assay on K562, in the assay on UO-31, in the assay with HOP-62 and in the assay on A498 was > 100 µM (inactive) in each case. Further, the GI50 in the assay on SF-268, in the assay with NCI/ADR-RES and in the assay with MCF7 was > 100 µM (inactive) in each case.

With `CCOC(=O)c1csc(NC(=O)CN(C)C)n1`, the GI50 in the assay on T47D, in the assay with A549, in the assay with PC-3, with DU-145, in the assay with ACHN and with SR was > 100 µM (inactive) throughout. The GI50 in the assay on MDA-MB-231, in the assay with MDA-MB-435, in the assay with Hs-578T, in the assay on K562, in the assay on UO-31 and with HOP-62 was > 100 µM (inactive) in each case. For the same compound, the GI50 with A498, in the assay on SF-268, in the assay on NCI/ADR-RES and with MCF7 was > 100 µM (inactive) each time.

For `O=c1n(CC2CO2)c2ccccc2n1CC1CS1` (stereo unspecified), the GI50 with A549 is > 100 µM (inactive); in the assay with DMS-273, > 100 µM (inactive); with ACHN, > 100 µM (inactive); in the assay on XF498, > 100 µM (inactive); in the assay with SR, 44.7 µM (inactive); in the assay on K562, > 100 µM (inactive). Besides, the GI50 in the assay with UO-31 was > 100 µM (inactive); in the assay with HOP-62, > 100 µM (inactive); in the assay on SF-268, 91.8 µM (inactive); with LXFL 529, 88.9 µM (inactive).

In the case of `Cc1ccc(Cl)cc1/N=N/C(=O)NNc1cc(Cl)ccc1C`, the GI50 was 33.3 µM (inactive) with T47D; 10.1 µM (inactive) in the assay on PC-3; 21.4 µM (inactive) in the assay on DU-145; 37.7 µM (inactive) with SR; 16.8 µM (inactive) with MDA-MB-231; 25.2 µM (inactive) in the assay with MDA-MB-435. Further, the GI50 with Hs-578T is 23.8 µM (inactive); in the assay on K562, 24.2 µM (inactive); with UO-31 it was 14.1 µM (inactive); with HOP-62 it was 10.8 µM (inactive); in the assay with A498, 20.3 µM (inactive); in the assay on NCI/ADR-RES, 19.9 µM (inactive). For the same compound, the GI50 in the assay on MCF7 was 27.8 µM (inactive).

Turning to `O=c1c2ccccc2[nH]c2cc(O)cc(O)c12`, the GI50 with A549 is 92.5 µM (inactive); with DMS-273 it was 35.1 µM (inactive); in the assay with SNB-78 it was > 100 µM (inactive); in the assay on ACHN it was 26.4 µM (inactive); with XF498, 27.9 µM (inactive); with K562, 66.4 µM (inactive). Also, the figures for the GI50 in the assay on UO-31, with SF-268 and with LXFL 529 were 21 µM (inactive), 93.8 µM (inactive) and 39.3 µM (inactive), respectively.

`CCOc1ccc(C(C)c2cc3c(cc2OC)OCO3)cc1` (stereo unspecified): the GI50 in the assay on A549 was 0.455 µM (active); with DMS-273, 0.245 µM (active); in the assay with SNB-78 it was 3.2 µM (inactive); in the assay with ACHN, 0.897 µM (active); with XF498 it was 0.256 µM (active); in the assay on SR, 0.0982 µM (active). The GI50 in the assay on UO-31 was 0.491 µM (active); with HOP-62, 0.323 µM (active); in the assay on SF-268 it was 1.05 µM (active); with LXFL 529, 0.429 µM (active).

Regarding `C=C(C)C1CC2=C(O1)C(=O)c1ccccc1C2=O` (stereo not drawn) [DEHYDROISO-ALPHA-LAPACHONE], the GI50 in the assay on A549 was 21 µM (inactive); with DMS-273, 17.4 µM (inactive); with SNB-78, 20.3 µM (inactive); in the assay on XF498 it was 17.9 µM (inactive); in the assay on K562, 18.6 µM (inactive); in the assay with HOP-62, 19.6 µM (inactive). The GI50 in the assay on LXFL 529 is 17.2 µM (inactive).
